Test results taken from patent US20210401957A1, “ROBO1 CAR-NK CELL CARRYING SUICIDE GENE, PREPARATION METHOD AND APPLICATION THEREOF” (Asclepius (Suzhou) Technology Company Group Co., Ltd., priority 2019, published 2021).

Tested on: ROBO1-iCaspase9CAR-NK cells
Experiment: Apoptosis of ROBO1-iCaspase9 CAR-NK cells induced by medicament AP1903
Assay type: cell-based, human
Conditions: within 24 hours
Method: Different amounts of medicament AP1903 were respectively added into the ROBO1 CAR-NK cells carrying the suicide gene (ATCG427B-1F7 and 2D5) after screening in Example 6 to test the effect thereof on apoptosis of the ROBO1 CAR-NK cells carrying the suicide gene (denoted with ATCG427B). Meanwhile, the medicament AP1903 was added into the ROBO1 CAR-NK cells as control, and divided into three experimental groups, i.e., cells treated by the medicament AP1903 with different concentrations (0 nM, 10 nM and 50 nM) for 2 hours, 4 hours and 24 hours. The experimental groups respectively treated for 4 hours and 24 hours were continuously cultured with fresh medium, and the cell viability was counted three days later, and the results were shown in FIG. 12. In addition, the 0 nM and 10 nM experimental groups treated for 4 hours were cultured in fresh medium for 24 hours and then photographed, and the results were shown in FIG. 13.

Structure (SMILES): CC[C@H](C(=O)N1CCCC[C@H]1C(=O)O[C@H](CCc1ccc(OC)c(OC)c1)c1cccc(OCC(=O)NCCNC(=O)COc2cccc([C@@H](CCc3ccc(OC)c(OC)c3)OC(=O)[C@@H]3CCCCN3C(=O)[C@@H](CC)c3cc(OC)c(OC)c(OC)c3)c2)c1)c1cc(OC)c(OC)c(OC)c1 [AP1903]
- effect of AP1903 on the control cells (printed as ROBO1-iCaspase9CAR-NK cells): has no effect
- killing of ROBO1-iCaspase9CAR-NK cells by AP1903: can effectively kill
